# Measurements as given in patent US9597407B2, “Targeted antimicrobial moieties” (C3 Jian, Inc., priority 2009, dated 2017).
# “Also recorded” adds a separate entry of the source.
# System: bacteria
# Experiment: Binding of targeting peptides to microorganisms (Table 3)
# Details: microorganism bound by the targeting peptide; binding in aqueous buffers chosen by peptide solubility, preferably 1x PBS
row,Substance,Target(s)
1,PF-184 (LIADRHIRA; Peptide with targeting and/or antimicrobial activity),S. epidermidis and M. luteus and E. coli and P. aeruginosa and C. albicans and MRSA and C. jeikeium
2,PF-132 (RPGDGAAEQGRSR; Peptide with targeting and/or antimicrobial activity),S. epidermidis; also recorded: C. jeikeium
3,PF-213 (MTTGVDFIIEKV; Peptide with targeting and/or antimicrobial activity),S. epidermidis
4,PF-207 (AAGCRDLGSLSSLVTNPS; Peptide with targeting and/or antimicrobial activity),M. luteus; also recorded: C. jeikeium
5,PF-151 (EEYPARVPLSGEDVTEARRH; Peptide with targeting and/or antimicrobial activity),S. epidermidis and MRSA and E. faecalis and C. jeikeium
6,PF-262 (DPHSEIDVTRYCQLHHFTCQTMQISEREFHYLIETQ; Peptide with targeting and/or antimicrobial activity),S. mutans; also recorded: S. epidermidis; also recorded: M. luteus; also recorded: E. coli; also recorded: P. aeruginosa; also recorded: A. baumannii
7,PF-134 (GKAMKRQDCSAL; Peptide with targeting and/or antimicrobial activity),S. epidermidis; also recorded: C. jeikeium
8,PF-189 (GNLTRSREAARATQ; Peptide with targeting and/or antimicrobial activity),S. epidermidis and M. luteus and C. albicans and MRSA and E. faecalis and C. jejuni
9,PF-340 (VKDVLLELFNKIIGA; Peptide with targeting and/or antimicrobial activity),S. mutans; also recorded: E. coli
10,PF-138 (AVHHSLLFR; Peptide with targeting and/or antimicrobial activity),S. epidermidis and M. luteus and P. mirabilis and E. coli and C. albicans and MRSA and C. jeikeium and C. jejuni

# Same assay, conditions: microorganism the targeting peptide binds; binding in aqueous buffers that varied with peptide solubility, preferably 1x PBS
row,Substance,Target(s)
1,PF-039 (MLEEKNKSL; Peptide with targeting and/or antimicrobial activity),P. mirabilis; also recorded: C. jeikeium
2,PF-054 (VSISRFIGGGHVFNGNNKRNL; Peptide with targeting and/or antimicrobial activity),S. epidermidis; also recorded: E. coli
3,1T-282 (ISLVFPAYT; Peptide with targeting and/or antimicrobial activity) [Peptide 1T-282],F. nucleatum; also recorded: P. gingivalis; also recorded: S. gordonii; also recorded: S. mitis; also recorded: S. mutans; also recorded: S. oralis; also recorded: S. salivarious; also recorded: S. sanguinis
4,1T-291 (DMKIIKLYIKILSFLFIKYCNKKLNSVKLKA; Peptide with targeting and/or antimicrobial activity) [Peptide 1T-291],A. naeslundii; also recorded: F. nucleatum; also recorded: P. gingivalis; also recorded: T. denticola; also recorded: S. mitis; also recorded: S. mutans; also recorded: S. oralis
5,1T-297 (RSLRLNNALTKLPKLWYNRIKEAFYAYNDYDK; Peptide with targeting and/or antimicrobial activity) [Peptide 1T-297],A. naeslundii; also recorded: F. nucleatum; also recorded: T. denticola; also recorded: S. mitis; also recorded: S. mutans; also recorded: S. oralis
6,PF-047 (NQEPSLQQDKEQKDNKG; Peptide with targeting and/or antimicrobial activity),S. mutans

# Same assay, conditions: peptide binding in aqueous buffers that varied depending on peptide solubility; preferably 1x PBS
Substance,Target(s) (microorganism bound by the targeting peptide),Target(s) (microorganisms bound by the targeting peptide)
PF-650 (IRSDQPGRQSRSSPRWPTGAGRHR; Peptide with targeting and/or antimicrobial activity),Mycobacteria spp,–
PF-486 (MQKEGEEDY; Peptide with targeting and/or antimicrobial activity),–,S. mutans
PF-800 (WYYFDNNGYM; Peptide with targeting and/or antimicrobial activity),S. mutans,–
PF-493 (PGAFFFCRGRGCWCGIGW; Peptide with targeting and/or antimicrobial activity),–,S. mutans; also recorded: B. subtilis; also recorded: E. coli
ASKQASKQASKQASKQASKQASRSLKNHLL [PF-523],–,S. epidermidis; also recorded: M. luteus; also recorded: C. albicans; also recorded: S. pneumoniae; also recorded: C. jeikeium; also recorded: C. jejuni
PF-388 (ITPLLDEIGKVCIDKISK; Peptide with targeting and/or antimicrobial activity),–,E. faecalis; also recorded: C. jeikeium; also recorded: C. jejuni

# Same assay, conditions: peptide binding in aqueous buffers varied by peptide solubility; preferably 1x PBS
row,Substance,Target(s) (microorganism bound by the targeting peptide)
1,1T-34 (AFWLNILLTLLGYIPGIVHAVYIIAKR; Peptide with targeting and/or antimicrobial activity) [Peptide 1T-34],S. aureus; also recorded: S. epidermidis; also recorded: C. jeikeium; also recorded: C. xerosis; also recorded: C. striatum; also recorded: P. aeruginosa
2,1T-101 (RLRVGRATDLPLTSFAVGVVRNLPDAPAH; Peptide with targeting and/or antimicrobial activity) [Peptide 1T-101],A. naeslundii; also recorded: P. gingivalis; also recorded: S. epidermidis; also recorded: S. gordonii; also recorded: S. mitis; also recorded: S. mutans; also recorded: S. oralis; also recorded: S. sanguinis
3,1T-54 (RWVSCNPSWRIQ; Peptide with targeting and/or antimicrobial activity) [Peptide 1T-54],S. epidermidis; also recorded: C. xerosis; also recorded: C. striatum; also recorded: P. aeruginosa
4,1T-16 (IDMR; Peptide with targeting and/or antimicrobial activity) [Peptide 1T-16],P. aeruginosa
5,1T-11 (RISE; Peptide with targeting and/or antimicrobial activity) [Peptide 1T-11],S. mutans; also recorded: S. epidermidis; also recorded: P. aeruginosa
6,1T-69 (ILSQEADRKKLF; Peptide with targeting and/or antimicrobial activity) [Peptide 1T-69],S. mutans; also recorded: P. aeruginosa
7,1T-107 (SPVPRFTAVGGVSRGSP; Peptide with targeting and/or antimicrobial activity) [Peptide 1T-107],A. naeslundii; also recorded: S. epidermidis; also recorded: S. gordonii; also recorded: S. mitis; also recorded: S. mutans; also recorded: S. oralis; also recorded: S. salivarious; also recorded: S. sanguinis
8,1T-70 (NRQAQGERAHGEQQG; Peptide with targeting and/or antimicrobial activity) [Peptide 1T-70],S. aureus; also recorded: C. jeikeium; also recorded: P. aeruginosa
9,1T-75 (GVARGLQLGIKTRTQWGAATGAA; Peptide with targeting and/or antimicrobial activity) [Peptide 1T-75],S. pneumoniae
10,1T-19 (PGAFRNPQMPRG; Peptide with targeting and/or antimicrobial activity) [Peptide 1T-19],S. aureus; also recorded: S. epidermidis; also recorded: P. aeruginosa
